What was measured:
[1] = test system: HSPs in 8226/LR5 cells; assay: LC-MRM relative quantification of HSPs after 17-DMAG (Example 2); type: cell-based, human; details: for CDC37 Fold Change, LC-MRM / HS90A Fold Change, LC-MRM / HS90B Fold Change, LC-MRM / HSP7C Fold Change, LC-MRM / HSP7E Fold Change, LC-MRM / HSP71 Fold Change, LC-MRM / HSP74 Fold Change, LC-MRM / HSPA5 Fold Change, LC-MRM / HSP90α Fold Change, LC-MRM: 8226/LR5, 50 nM; for CDC37 Fold Change, LC-MRM / HS90A Fold Change, LC-MRM / HS90B Fold Change, LC-MRM / HSP7C Fold Change, LC-MRM / HSP7E Fold Change, LC-MRM / HSP71 Fold Change, LC-MRM / HSP74 Fold Change, LC-MRM / HSPA5 Fold Change, LC-MRM: 24 hrs after treatment vs. control; for HSP90α Fold Change, LC-MRM: 24 hrs vs. control
Experimental: (§1) Cell Culture, Lysis, and HSP Sample Preparation for Mass Spectrometry. RPMI-8226 and 8226/LR5 cells were maintained as previously described (Bellamy et al., Cancer Res. 51:995-1002 (1991); Remily-Wood et al., Proteomics Clin. Appl. 5:383-96 (2011)). The heat shock protein 90 inhibitor, 17-desmethoxy-17-N,N-dimethylaminoethylamino-geldanamycin (17-DMAG), was dissolved in DMSO (100 μM stock). Based on prior IC50 measurements, the RPMI-8226 cells were treated with 100 nM 17-DMAG for 24 hours, and 8226/LR5 cells were treated with 50 nM 17-DMAG. Cells (n=10^6) were lysed using in aqueous 100 mM ammonium bicarbonate containing 8M urea for protein denaturation. Protein concentrations were measured by Bradford assays; consistent aliquots of total protein (380 ng) were injected for LC-MRM, and the same solutions were used for DI-MRM. Digestion, addition of SIS peptides, and mass spectrometry sample preparation were performed as described for standard proteins.
(§2) […] Quantification. For HSP proteins in cell lysate, 184 transitions from 32 peptides (see Table 2) were monitored as previously described (Remily-Wood et al., Proteomics Clin. Appl. 5:383-96 (2011)). Both relative and absolute quantification were calculated from the sum of the peak areas for all detected transitions using Skyline (MacLean et al., Bioinformatics 26:966-8 (2010)) or the combination of MRMer (Martin et al., Mol. Cell Proteomics 7:2270-8 (2008)) and Post-MRMer (http://proteome.moffitt. org).

[2] = test system: HSPs in RPMI-8226 cells; assay: as above; type: cell-based, human; details: for CDC37 Fold Change, LC-MRM / HS90A Fold Change, LC-MRM / HS90B Fold Change, LC-MRM / HSP7C Fold Change, LC-MRM / HSP7E Fold Change, LC-MRM / HSP71 Fold Change, LC-MRM / HSP74 Fold Change, LC-MRM / HSPA5 Fold Change, LC-MRM / HSP90α Fold Change, LC-MRM: RPMI-8226, 100 nM; for CDC37 Fold Change, LC-MRM / HS90A Fold Change, LC-MRM / HS90B Fold Change, LC-MRM / HSP7C Fold Change, LC-MRM / HSP7E Fold Change, LC-MRM / HSP71 Fold Change, LC-MRM / HSP74 Fold Change, LC-MRM / HSPA5 Fold Change, LC-MRM: 24 hrs after treatment vs. control; for HSP90α Fold Change, LC-MRM: 24 hrs vs. control
Experimental: as §1, §2

[3] = test system: HSPs in RPMI-8226 cells; assay: DI-MRM relative quantification of HSPs after 17-DMAG (Example 2); type: cell-based, human; details: RPMI-8226, 100 nM
Experimental: Synthesis and DI MRM of Standard Peptides. Standard peptides were synthesized and characterized as described previously (Remily-Wood et al., Proteomics Clin. Appl. 5:383-96 (2011)). An automated chip-based nanoelectrospray ion source, (NanoMate100, Advion BioSciences, Ithaca, N.Y.), was mounted on a triple quadrupole mass spectrometer (TSQ Vantage, Thermo, San Jose, Calif.). […] (SEQ ID NO:17) were diluted to 1 μM in 50% aqueous ACN with 0.1% formic acid. For synthetic peptide infusion, the spray voltage was tuned between 1.5 and 1.9 kV for stable ion signal. The gas pressure was set to 0.3 psi. Data were acquired at 20 ms per transition for 2 minutes using m/z 0.002 scan widths. The quadrupole resolution values were modulated from 0.2 to 0.7.
Standard Protein DI-MRM. As described below, a dilution series of BSA digest was created in 50% aqueous acetonitrile with 0.1% formic acid spiked with five synthetic peptide standards (20 nM). In DI-MRM, the spray voltage was set to 1.6 kV, and the gas pressure was set to 0.3 psi. Peptide selection was performed using Q1=0.4; fragment ion selection was performed using Q3=0.7. Transitions (n=36) were monitored for 20 ms each with scan width set to 0.002; data were acquired for 5 minutes.
as §1
Calculation of Correction Factors to Account for Interference in DI MRM. […] To evaluate the ability to eliminate these contributions, correction factors were calculated based on LC-MRM data using the following set of equations (Equations 1 and 2): […]

[4] = test system: BIM, Mcl-1 and BMF mRNA in vemurafenib-resistant melanoma cell lines; assay: Quantitative real-time PCR; details: 300 nM, 48 hours
[5] = y3-y5 (DI-MRM Interference-Corrected)
[6] = y3-y6 (DI-MRM Interference-Corrected)
[7] = 24 hrs vs. control, all LC-MRM transitions, interference-corrected
[8] = 24 hrs vs. control, noise corrected, only transitions below 40% interference

CO[C@H]1/C=C\C=C(/C)C(=O)NC2=CC(=O)C(NCCN(C)C)=C(C[C@@H](C)C[C@H](OC)[C@H](O)[C@@H](C)/C=C(\C)[C@@H]1OC(N)=O)C2=O [17-DMAG, 17-Dimethylaminoethylamino-17-demethoxygeldanamycin]
CDC37 Fold Change, LC-MRM ([1]; Table 6): 1.08 | HS90A Fold Change, LC-MRM ([1]; Table 6): 1.23 | HS90B Fold Change, LC-MRM ([1]; Table 6): 1.28 | HSP7C Fold Change, LC-MRM ([1]; Table 6): 1.56 | HSP7E Fold Change, LC-MRM ([1]; Table 6): 0.99 | HSP71 Fold Change, LC-MRM ([1]; Table 6): 3.54 | HSP74 Fold Change, LC-MRM ([1]; Table 6): 1.34 | HSPA5 Fold Change, LC-MRM ([1]; Table 6): 1.53 | CDC37 Fold Change, LC-MRM ([1]; Table 7): 1.08 | HS90A Fold Change, LC-MRM ([1]; Table 7): 1.23 | HS90B Fold Change, LC-MRM ([1]; Table 7): 1.28 | HSP7C Fold Change, LC-MRM ([1]; Table 7): 1.56 | HSP7E Fold Change, LC-MRM ([1]; Table 7): 0.99 | HSP71 Fold Change, LC-MRM ([1]; Table 7): 3.54 | HSP74 Fold Change, LC-MRM ([1]; Table 7): 1.34 | HSPA5 Fold Change, LC-MRM ([1]; Table 7): 1.53 | HSP90α Fold Change, LC-MRM ([1]; y3 (Least Interference)): 1.26 | HSP90α Fold Change, LC-MRM [1, 5]: 1.23 | HSP90α Fold Change, LC-MRM ([1]; y3-y5 (Selected Transitions)): 1.23 | HSP90α Fold Change, LC-MRM [1, 6]: 1.23 | HSP90α expression increase, LC-MRM ([1]; 8226/LR5, 24 hours after treatment, same for y3-y6, y3-y5 or just y3): ~1.2 fold | CDC37 Fold Change, LC-MRM ([2]; Table 6): 1.33 | HS90A Fold Change, LC-MRM ([2]; Table 6): 2.21 | HS90B Fold Change, LC-MRM ([2]; Table 6): 1.53 | HSP7C Fold Change, LC-MRM ([2]; Table 6): 2.28 | HSP7E Fold Change, LC-MRM ([2]; Table 6): 1.23 | HSP71 Fold Change, LC-MRM ([2]; Table 6): 4.67 | HSP74 Fold Change, LC-MRM ([2]; Table 6): 1.45 | HSPA5 Fold Change, LC-MRM ([2]; Table 6): 2.66 | CDC37 Fold Change, LC-MRM ([2]; Table 7): 1.33 | HS90A Fold Change, LC-MRM ([2]; Table 7): 2.21 | HS90B Fold Change, LC-MRM ([2]; Table 7): 1.53 | HSP7C Fold Change, LC-MRM ([2]; Table 7): 2.28 | HSP7E Fold Change, LC-MRM ([2]; Table 7): 1.23 | HSP71 Fold Change, LC-MRM ([2]; Table 7): 4.67 | HSP74 Fold Change, LC-MRM ([2]; Table 7): 1.45 | HSPA5 Fold Change, LC-MRM ([2]; Table 7): 2.66 | HSP90α Fold Change, LC-MRM ([2]; y3 (Least Interference)): 2.19 | HSP90α Fold Change, LC-MRM [2, 5]: 2.21 | HSP90α Fold Change, LC-MRM ([2]; y3-y5 (Selected Transitions)): 2.21 | HSP90α Fold Change, LC-MRM [2, 6]: 2.21 | HSP90α expression increase, LC-MRM ([2]; RPMI-8226, 24 hours after treatment, same for y3-y6, y3-y5 or just y3): approximately 2.2 fold | HSP90α Fold Change, DI-MRM ([3]; 24 hrs after treatment vs. control, ALLFVPR y3-y6 (All LC-MRM Transitions)): 1.86 | CDC37 Fold Change, DI-MRM [3, 7]: 1.08 | HS90A Fold Change, DI-MRM [3, 7]: 1.86 | HS90B Fold Change, DI-MRM [3, 7]: 1.46 | HSP7C Fold Change, DI-MRM [3, 7]: 1.52 | HSP7E Fold Change, DI-MRM [3, 7]: 0.87 | HSP71 Fold Change, DI-MRM [3, 7]: 6.10 | HSP74 Fold Change, DI-MRM [3, 7]: 1.22 | HSPA5 Fold Change, DI-MRM [3, 7]: 3.43 | CDC37 Fold Change, DI-MRM [3, 8]: 1.20 | HS90A Fold Change, DI-MRM [3, 8]: 1.85 | HS90B Fold Change, DI-MRM [3, 8]: 1.46 | HSP7C Fold Change, DI-MRM [3, 8]: 1.84 | HSP7E Fold Change, DI-MRM [3, 8]: 0.81 | HSP71 Fold Change, DI-MRM [3, 8]: 6.10 | HSP74 Fold Change, DI-MRM [3, 8]: 1.37 | HSPA5 Fold Change, DI-MRM [3, 8]: 2.53 | HSP90α Fold Change, DI-MRM ([3]; 24 hrs vs. control, y3 (Least Interference)): 2.96 | HSP90α Fold Change, DI-MRM ([3]; 24 hrs vs. control, y3-y5 (DI-MRM Interference-Corrected)): 1.85 | HSP90α Fold Change, DI-MRM ([3]; 24 hrs vs. control, y3-y5 (Selected Transitions)): 1.85 | HSP90α Fold Change, DI-MRM ([3]; 24 hrs vs. control, y3-y6 (DI-MRM Interference-Corrected)): 1.87

CC[C@@H](C)Nc1cc(C(=O)N[C@@H]2C[C@H]3CC[C@@H](C2)N3c2ccc(C(=O)C3CC3)cn2)c(C)cc1C(N)=O [XL888, 5-((R)-sec-butylamino)-N1-((1R,3s,5S)-8-(5-(cyclopropanecarbonyl)pyridin-2-yl)-8-azabicyclo[3.2.1]octan-3-yl)-2-methylterephthalamide]
BIM mRNA expression [4]: increase in BIM mRNA | Mcl-1 expression at the mRNA level [4]: blocked Mcl-1 expression at the mRNA level | BMF mRNA expression ([4]; M229R and 1205LuR): only weakly induced BMF mRNA expression

— US20210100777A1, “HEAT SHOCK PROTEIN (HSP) INHIBITION AND MONITORING EFFECTIVENESS THEREOF” (H. LEE MOFFITT CANCER CENTER AND RESEARCH INSTITUTE, INC., priority 2013, published 2021)
